“Also recorded” adds a separate entry of the source. Where no end group is shown, it is not given here. [ ]: non-standard residue; d: D form. Aib = CC(C)(N)C(=O)O
How the values were obtained:
db/db mice [1] = experiment: Blood glucose lowering in db/db mice (Example 8); assay type: in vivo; conditions: db/db male mice, 30 nmol/kg subcutaneous single dose, blood glucose 0-10 hours, AUC, vs PBS control; FIG. 2
Description: The feeding conditions of db/db mice were the same as described in Example 7. The db/db male mice (8 weeks old) were given one week to acclimate to the environmental conditions of the test facility. Baseline blood glucose and body weight were recorded for three days before the experiment (−3 day to −1 day). The mice were randomly grouped based on their three-day blood glucose and body weight, with 6 mice in each group. Mice were injected subcutaneously with PBS (5 ml/kg, control group) or the peptide compounds 31, 35, 38, 44 and 49 (30 nmol/kg) respectively at 10:00 in the morning. Blood was collected at 0 hour before drug administration, and 1, 2, 4, 6, 8, and 10 hours after administration, and blood glucose was measured using a OneTouch glucose meter (Johnson & Johnson) and test strips. Blood glucose curves were plotted with time as the abscissa and the blood glucose value at different time point as the ordinate, and the areas under the curve (AUC) were calculated.

DIO obese mice = DIO obese mice 14-day body composition study (Example 14); assay type: in vivo, C57BL/6 mice; conditions: 1.5 nmole per animal s.c. once a day for 14 days
Description: The DIO obese mice experiment was conducted by Shanghai WuXi AppTec New Drug Development Co., Ltd. The animal feeding was the same as described in Example 13. The animals were adapted to grasping and subcutaneous injection for 1 week at 40 weeks of age. The body weight and food intake were measured for 3 consecutive days before the experiment, and the fasting blood glucose of the animals was measured 1 day before the experiment. The animals with abnormal blood glucose were removed, and the remaining animals were grouped according to the random blood glucose and body weight of the animals (using body weight as the main reference indicator), with 6 animals per group and an average weight of 47 grams. During the experiment, each group of the animals was injected subcutaneously with PBS, or 1.5 nmole of compound 35 or compound 40 per animal once a day, and the dosing period was 14 days. An EchoMRI body composition analyzer was used to measure the body fat content of the animals before and after the experiment.

db/db mice [2] = experiment: Blood glucose lowering in db/db mice (Example 7); assay type: in vivo; conditions: db/db male mice, 30 nmol/kg subcutaneous single dose, blood glucose 0-10 hours, AUC, vs PBS control; FIG. 1
Description: db/db mice were housed in animal feeding rooms with strictly controlled environmental conditions. The temperature in the feeding room was maintained at 20-24° C. and the humidity was maintained at 40-70%. The temperature and humidity of the feeding room were monitored in real time by a temperature and humidity meter, and the temperature and humidity were recorded twice a day (once in the morning and once in the afternoon). The lighting in the animal feeding room was controlled by an electronic timing light-on system. The lights were turned on for 12 hours and turned off for 12 hours every day (on at 7:00 in the morning and off at 19:00 in the afternoon). During the experiment, the mice were individually housed in each cage, and toys were provided to the mice in each cage. During the experiment mice had free access to water. The db/db male mice (6 weeks old) were given one week to acclimate to the environmental conditions of the test facility. Baseline blood glucose and body weight were recorded for three days before the test (−3 day to −1 day). The mice were randomly grouped based on three-day blood glucose and body weight, with 6 mice in each group. The mice were injected subcutaneously with PBS (5 ml/kg, control group) or the peptide compounds 1, 2, 8, 16, 18, 19, 24, and 36 (30 nmol/kg) respectively at 10:00 am. Blood was collected at 0 hour before drug administration, and 1, 2, 4, 6, 8 and 10 hours after administration, and blood glucose was measured using a OneTouch glucose meter (Johnson & Johnson) and test strips. Blood glucose curves were plotted with time as the abscissa and the blood glucose value at different time point as the ordinate, the areas under the curve (AUC) were calculated, and the hypoglycemic effects and duration of time of the peptide compounds were compared.

Substance | blood glucose (db/db mice [1]) | also measured
Y(aib)EGTFTSDLSI(aib)LEKEAVKLFIEWLLAGGPSSGAPPPK-NH2 (YXEGTFTSDLSIXLEKEAVKLFIEWLLAGGPSSGAPPPK; Aib; C-terminal amide; …ON (2)..(2) X=aminoisobutyric aicd; …ON (13)..(13) X=aminoisobutyric aicd; …ON (39)..(39) AMIDATION, C-termianl amidation) [Compound 49] | significantly reduced the blood glucose | 
Y(aib)EGTFTSDLSI(aib)LEKEAVRLFIEWLLAGGPSSGAPPPK-NH2 (YXEGTFTSDLSIXLEKEAVRLFIEWLLAGGPSSGAPPPK; Aib; C-terminal amide; MOD_RES (2)..(2) X=aminoisobutyric aicd; MOD_RES (13)..(13) X=aminoisobutyric aicd; MOD_RES (39)..(39) AMIDATION, C-termianl amidation) [Compound 40] |  | lean mass (DIO obese mice; EchoMRI day 0 vs day 15, FIG. 13): basically unchanged; fat mass (DIO obese mice; EchoMRI day 0 vs day 15, vs PBS control, FIG. 13): effectively reduced fat mass; also recorded: decreased markedly
Y(aib)EGTFTSDLSIALEKEAVKLFIEWLLAGGPSSGAPPPK-NH2 (Y[Aib]EGTFTSDLSIALEKEAVKLFIEWLLAGGPSSGAPPPK-NH2; N-terminus assumed; SMILES CC[C@H](C)[C@H](NC(=O)[C@H](CO)NC(=O)[C@H](CC(C)C)NC(=O)[C@H](CC(=O)O)NC(=O)[C@H](CO)NC(=O)[C@@H](NC(=O)[C@H](Cc1ccccc1)NC(=O)[C@@H](NC(=O)CNC(=O)[C@H](CCC(=O)O)NC(=O)C(C)(C)NC(=O)[C@@H](N)Cc1ccc(O)cc1)[C@@H](C)O)[C@@H](C)O)C(=O)N[C@@H](C)C(=O)N[C@@H](CC(C)C)C(=O)N[C@@H](CCC(=O)O)C(=O)N[C@@H](CCCCN)C(=O)N[C@@H](CCC(=O)O)C(=O)N[C@@H](C)C(=O)N[C@H](C(=O)N[C@@H](CCCCN)C(=O)N[C@@H](CC(C)C)C(=O)N[C@@H](Cc1ccccc1)C(=O)N[C@H](C(=O)N[C@@H](CCC(=O)O)C(=O)N[C@@H](Cc1c[nH]c2ccccc12)C(=O)N[C@@H](CC(C)C)C(=O)N[C@@H](CC(C)C)C(=O)N[C@@H](C)C(=O)NCC(=O)NCC(=O)N1CCC[C@H]1C(=O)N[C@@H](CO)C(=O)N[C@@H](CO)C(=O)NCC(=O)N[C@@H](C)C(=O)N1CCC[C@H]1C(=O)N1CCC[C@H]1C(=O)N1CCC[C@H]1C(=O)N[C@@H](CCCCN)C(N)=O)[C@@H](C)CC)C(C)C) [Compound 44] | significantly reduced the blood glucose | 
Y(aib)EGTFTSDYSIYLDEEAVKLFVNWLIAGGPSSGAPPPS-NH2 (Y[Aib]EGTFTSDYSIYLDEEAVKLFVNWLIAGGPSSGAPPPS-NH2; N-terminus assumed; SMILES CC[C@H](C)[C@H](NC(=O)[C@H](CC(C)C)NC(=O)[C@H](Cc1c[nH]c2ccccc12)NC(=O)[C@H](CC(N)=O)NC(=O)[C@@H](NC(=O)[C@H](Cc1ccccc1)NC(=O)[C@H](CC(C)C)NC(=O)[C@H](CCCCN)NC(=O)[C@@H](NC(=O)[C@H](C)NC(=O)[C@H](CCC(=O)O)NC(=O)[C@H](CCC(=O)O)NC(=O)[C@H](CC(=O)O)NC(=O)[C@H](CC(C)C)NC(=O)[C@H](Cc1ccc(O)cc1)NC(=O)[C@@H](NC(=O)[C@H](CO)NC(=O)[C@H](Cc1ccc(O)cc1)NC(=O)[C@H](CC(=O)O)NC(=O)[C@H](CO)NC(=O)[C@@H](NC(=O)[C@H](Cc1ccccc1)NC(=O)[C@@H](NC(=O)CNC(=O)[C@H](CCC(=O)O)NC(=O)C(C)(C)NC(=O)[C@@H](N)Cc1ccc(O)cc1)[C@@H](C)O)[C@@H](C)O)[C@@H](C)CC)C(C)C)C(C)C)C(=O)N[C@@H](C)C(=O)NCC(=O)NCC(=O)N1CCC[C@H]1C(=O)N[C@@H](CO)C(=O)N[C@@H](CO)C(=O)NCC(=O)N[C@@H](C)C(=O)N1CCC[C@H]1C(=O)N1CCC[C@H]1C(=O)N1CCC[C@H]1C(=O)N[C@@H](CO)C(N)=O) [Compound 2] |  | blood glucose (db/db mice [2]): significantly reduce blood glucose
Y(aib)EGTFTSDLSI(aib)LEKEAVRLFIEWLLAGGPSSGAPPPC-NH2 (YXEGTFTSDLSIXLEKEAVRLFIEWLLAGGPSSGAPPPC; Aib; C-terminal amide; MOD_RES (2)..(2) X=aminoisobutyric aicd; MOD_RES (13)..(13) X=aminoisobutyric aicd; MOD_RES (39)..(39) AMIDATION, C-termianl amidation) [Compound 38] | significantly reduced the blood glucose | 
Y(aib)EGTFTSDLSIALEKEAVRLFIEWLLAGGPSSGAPPPS-NH2 (Y[Aib]EGTFTSDLSIALEKEAVRLFIEWLLAGGPSSGAPPPS-NH2; N-terminus assumed; SMILES CC[C@H](C)[C@H](NC(=O)[C@H](CO)NC(=O)[C@H](CC(C)C)NC(=O)[C@H](CC(=O)O)NC(=O)[C@H](CO)NC(=O)[C@@H](NC(=O)[C@H](Cc1ccccc1)NC(=O)[C@@H](NC(=O)CNC(=O)[C@H](CCC(=O)O)NC(=O)C(C)(C)NC(=O)[C@@H](N)Cc1ccc(O)cc1)[C@@H](C)O)[C@@H](C)O)C(=O)N[C@@H](C)C(=O)N[C@@H](CC(C)C)C(=O)N[C@@H](CCC(=O)O)C(=O)N[C@@H](CCCCN)C(=O)N[C@@H](CCC(=O)O)C(=O)N[C@@H](C)C(=O)N[C@H](C(=O)N[C@@H](CCCNC(=N)N)C(=O)N[C@@H](CC(C)C)C(=O)N[C@@H](Cc1ccccc1)C(=O)N[C@H](C(=O)N[C@@H](CCC(=O)O)C(=O)N[C@@H](Cc1c[nH]c2ccccc12)C(=O)N[C@@H](CC(C)C)C(=O)N[C@@H](CC(C)C)C(=O)N[C@@H](C)C(=O)NCC(=O)NCC(=O)N1CCC[C@H]1C(=O)N[C@@H](CO)C(=O)N[C@@H](CO)C(=O)NCC(=O)N[C@@H](C)C(=O)N1CCC[C@H]1C(=O)N1CCC[C@H]1C(=O)N1CCC[C@H]1C(=O)N[C@@H](CO)C(N)=O)[C@@H](C)CC)C(C)C) [Compound 31] | significantly reduced the blood glucose | 
Y(aib)EGTFTSDLSIQLEKEAVRLFIEWLLAGGPSSGAPPPS-NH2 (Y[Aib]EGTFTSDLSIQLEKEAVRLFIEWLLAGGPSSGAPPPS-NH2; N-terminus assumed; SMILES CC[C@H](C)[C@H](NC(=O)[C@H](CO)NC(=O)[C@H](CC(C)C)NC(=O)[C@H](CC(=O)O)NC(=O)[C@H](CO)NC(=O)[C@@H](NC(=O)[C@H](Cc1ccccc1)NC(=O)[C@@H](NC(=O)CNC(=O)[C@H](CCC(=O)O)NC(=O)C(C)(C)NC(=O)[C@@H](N)Cc1ccc(O)cc1)[C@@H](C)O)[C@@H](C)O)C(=O)N[C@@H](CCC(N)=O)C(=O)N[C@@H](CC(C)C)C(=O)N[C@@H](CCC(=O)O)C(=O)N[C@@H](CCCCN)C(=O)N[C@@H](CCC(=O)O)C(=O)N[C@@H](C)C(=O)N[C@H](C(=O)N[C@@H](CCCNC(=N)N)C(=O)N[C@@H](CC(C)C)C(=O)N[C@@H](Cc1ccccc1)C(=O)N[C@H](C(=O)N[C@@H](CCC(=O)O)C(=O)N[C@@H](Cc1c[nH]c2ccccc12)C(=O)N[C@@H](CC(C)C)C(=O)N[C@@H](CC(C)C)C(=O)N[C@@H](C)C(=O)NCC(=O)NCC(=O)N1CCC[C@H]1C(=O)N[C@@H](CO)C(=O)N[C@@H](CO)C(=O)NCC(=O)N[C@@H](C)C(=O)N1CCC[C@H]1C(=O)N1CCC[C@H]1C(=O)N1CCC[C@H]1C(=O)N[C@@H](CO)C(N)=O)[C@@H](C)CC)C(C)C) [Compound 19] |  | blood glucose (db/db mice [2]): significantly reduce blood glucose
